Values of other authors in patent US20260245667A1, “EFFICIENT DETECTION OF DECENTRALIZED BIOMARKERS OF GROUPS OF DNA SEQUENCES IN MICROBIOME DNA” (ALPHABIOME AI LTD, priority 2023, published 2026).

Key:
[1] = tested on: ruminal methane production; settings: meta-analyses

CC[C@@]1([C@@H]2O[C@@H]([C@H]3O[C@@](O)(CO)[C@H](C)C[C@@H]3C)C[C@@H]2C)CC[C@H]([C@]2(C)CC[C@]3(C[C@H](O)[C@@H](C)[C@@H]([C@@H](C)[C@@H](OC)[C@H](C)C(=O)O)O3)O2)O1 [Monensin]
methanogenesis inhibition, reduction on average in dairy [1]: up to 10%

C=CCS[S+]([O-])CC=C (stereo not drawn) [Allicin]
mitigation of methane emissions in vitro (methane emissions; in vitro): up to 38%
levels of propionate and butyrate (methane emissions; partial incubation periods): elevate
